Measured values as given in patent US9938281B2 (Merck Sharp & Dohme Corp., priority 2012, dated 2018).
pIC50: −log10 of the molar value.

Experiments:
[1] = biological target: T1, PI3K-delta (Homo sapiens, UniProt O00329); assay: HTRF PI3K biochemical assay, delta isoform; details: form screened (neutral or TFA salt) given, read-out: PI3Kdelta IC50
T1 construct: purchased Upstate; Millipore 14-604

[2] = biological target: T2, PI3K-alpha (Homo sapiens, UniProt P42336); assay: HTRF PI3K biochemical assay, alpha isoform; details: ratio PI3K-alpha IC50 value / PI3K-delta IC50 value
T2 construct: purchased Upstate; Millipore 14-602
T2 sequence (P42336 whole entry, canonical isoform): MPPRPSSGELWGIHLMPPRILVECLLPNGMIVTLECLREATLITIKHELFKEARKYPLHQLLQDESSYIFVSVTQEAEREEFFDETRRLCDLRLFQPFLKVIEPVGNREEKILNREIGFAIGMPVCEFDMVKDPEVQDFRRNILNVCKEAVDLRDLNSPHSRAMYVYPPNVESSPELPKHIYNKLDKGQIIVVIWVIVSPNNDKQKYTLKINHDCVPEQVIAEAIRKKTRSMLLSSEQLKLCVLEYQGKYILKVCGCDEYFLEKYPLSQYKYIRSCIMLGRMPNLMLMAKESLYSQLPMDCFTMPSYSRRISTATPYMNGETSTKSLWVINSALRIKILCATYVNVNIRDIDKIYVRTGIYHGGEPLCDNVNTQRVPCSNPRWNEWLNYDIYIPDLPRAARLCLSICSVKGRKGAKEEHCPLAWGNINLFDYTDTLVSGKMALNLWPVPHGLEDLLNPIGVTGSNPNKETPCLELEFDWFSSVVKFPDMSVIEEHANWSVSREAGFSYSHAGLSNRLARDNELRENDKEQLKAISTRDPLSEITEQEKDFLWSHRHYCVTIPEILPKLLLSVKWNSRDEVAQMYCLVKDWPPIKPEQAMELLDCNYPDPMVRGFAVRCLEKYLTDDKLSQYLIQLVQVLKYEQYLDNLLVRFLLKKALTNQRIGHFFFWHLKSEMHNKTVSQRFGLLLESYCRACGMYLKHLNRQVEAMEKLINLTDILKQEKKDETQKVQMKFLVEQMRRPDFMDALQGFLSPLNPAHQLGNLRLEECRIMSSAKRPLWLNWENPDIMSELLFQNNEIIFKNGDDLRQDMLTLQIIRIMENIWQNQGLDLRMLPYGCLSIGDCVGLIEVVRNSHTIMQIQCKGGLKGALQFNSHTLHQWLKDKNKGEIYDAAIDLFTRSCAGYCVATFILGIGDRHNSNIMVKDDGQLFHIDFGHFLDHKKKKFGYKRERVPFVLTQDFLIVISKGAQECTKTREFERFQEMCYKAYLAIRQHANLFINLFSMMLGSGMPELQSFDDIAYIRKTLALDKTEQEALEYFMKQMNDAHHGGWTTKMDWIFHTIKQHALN
T2 sequence (P27986 whole entry partner, canonical isoform): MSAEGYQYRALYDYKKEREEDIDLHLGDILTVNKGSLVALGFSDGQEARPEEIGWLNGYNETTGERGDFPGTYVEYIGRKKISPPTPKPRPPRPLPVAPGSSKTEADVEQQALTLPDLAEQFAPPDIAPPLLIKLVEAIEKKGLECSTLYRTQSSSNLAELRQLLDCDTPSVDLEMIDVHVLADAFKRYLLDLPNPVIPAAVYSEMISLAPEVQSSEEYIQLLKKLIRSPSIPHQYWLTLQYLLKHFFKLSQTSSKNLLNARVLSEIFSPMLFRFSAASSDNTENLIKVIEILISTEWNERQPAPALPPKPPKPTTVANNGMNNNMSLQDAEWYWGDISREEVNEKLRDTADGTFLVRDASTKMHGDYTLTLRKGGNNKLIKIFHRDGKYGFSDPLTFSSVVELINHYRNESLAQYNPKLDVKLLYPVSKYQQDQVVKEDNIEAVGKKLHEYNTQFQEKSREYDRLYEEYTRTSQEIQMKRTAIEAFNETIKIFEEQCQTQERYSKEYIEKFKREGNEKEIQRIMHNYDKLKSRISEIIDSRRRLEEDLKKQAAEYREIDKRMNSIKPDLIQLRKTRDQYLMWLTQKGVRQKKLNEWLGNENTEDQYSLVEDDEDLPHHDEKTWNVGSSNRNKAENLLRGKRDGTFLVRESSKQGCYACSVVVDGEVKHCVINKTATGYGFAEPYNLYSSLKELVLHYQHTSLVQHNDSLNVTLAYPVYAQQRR

T1 sequence (O00329 whole entry, canonical isoform): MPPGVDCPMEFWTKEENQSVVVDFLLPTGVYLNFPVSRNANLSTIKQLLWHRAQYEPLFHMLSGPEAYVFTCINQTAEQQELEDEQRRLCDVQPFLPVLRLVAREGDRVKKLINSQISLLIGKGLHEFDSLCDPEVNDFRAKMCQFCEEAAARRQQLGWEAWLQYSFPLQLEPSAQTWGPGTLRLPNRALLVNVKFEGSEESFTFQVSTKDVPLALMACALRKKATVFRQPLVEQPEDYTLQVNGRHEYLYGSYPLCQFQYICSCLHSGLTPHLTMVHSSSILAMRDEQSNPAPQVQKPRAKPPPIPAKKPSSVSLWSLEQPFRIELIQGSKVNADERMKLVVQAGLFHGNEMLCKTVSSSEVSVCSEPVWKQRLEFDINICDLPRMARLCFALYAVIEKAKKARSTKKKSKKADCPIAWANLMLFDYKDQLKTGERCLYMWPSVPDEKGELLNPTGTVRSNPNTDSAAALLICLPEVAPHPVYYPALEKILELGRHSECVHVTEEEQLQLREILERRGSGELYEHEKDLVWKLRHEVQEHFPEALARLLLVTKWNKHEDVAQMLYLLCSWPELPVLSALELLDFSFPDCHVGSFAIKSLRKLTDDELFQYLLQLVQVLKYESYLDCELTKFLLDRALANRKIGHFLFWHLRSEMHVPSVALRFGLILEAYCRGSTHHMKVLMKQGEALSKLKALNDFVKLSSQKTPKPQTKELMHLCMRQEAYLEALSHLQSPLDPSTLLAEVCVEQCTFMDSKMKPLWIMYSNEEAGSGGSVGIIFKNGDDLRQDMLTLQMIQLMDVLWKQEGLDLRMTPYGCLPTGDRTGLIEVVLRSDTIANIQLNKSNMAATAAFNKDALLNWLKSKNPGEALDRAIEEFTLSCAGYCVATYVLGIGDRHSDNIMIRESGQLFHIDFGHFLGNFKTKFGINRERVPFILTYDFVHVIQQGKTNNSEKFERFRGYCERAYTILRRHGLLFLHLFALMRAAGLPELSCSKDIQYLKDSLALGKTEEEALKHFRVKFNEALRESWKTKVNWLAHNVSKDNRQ
T1 sequence (P27986 whole entry partner, canonical isoform): as the sequence (P27986 whole entry partner, canonical isoform) above

SMILES	pIC50 [1]	Selectivity versus PI3Kalpha [2]
CCn1c(-c2cnc(C)nc2)nc2c(N[C@H]3CCN(C(=O)C4CC45CCCC5)C3)ncnc21 (single isomer, unassigned) [Compound 2-35, 9-ethyl-8-(2-methylpyrimidin-5-yl)-N-[(3S)-1-((R or S)-spiro[2.4]hept-1-ylcarbonyl)pyrrolidin-3-yl]-9H-purin-6-amine]	> 9.00	>10
CCn1c(-c2cnc(C)nc2)nc2c(NC3CN(C(=O)C4CC4)CC3C)ncnc21 (single isomer, unassigned) [Compound 2-87, N-[(3S,4R or 3R,4S)-1-(cyclopropylcarbonyl)-4-methylpyrrolidin-3-yl]-9-ethyl-8-(2-methylpyrimidin-5-yl)-9H-purin-6-amine]	8.77	>10
CCn1c(-c2cnc(C)nc2)nc2c(NC3CN(C(=O)C4CC45CCCCC5)CC3C)ncnc21 (single isomer, unassigned) [Compound 2-88, 9-ethyl-8-(2-methylpyrimidin-5-yl)-N-[(3S,4R or 3R,4S)-4-methyl-1-((S and R)-spiro[2.5]oct-1-ylcarbonyl)pyrrolidin-3-yl]-9H-purin-6-amine]	> 9.00	>10
CCn1c(-c2cnc(C)nc2)nc2c(NC3CN(C(=O)c4cocn4)CC3C)ncnc21 (single isomer, unassigned) [Compound 2-89, 9-ethyl-N-[-{(3S,4R or 3R,4S)-4-methyl-1-(1,3-oxazol-4-ylcarbonyl)pyrrolidin-3-yl]-8-(2-methylpyrimidin-5-yl)-9H-purin-6-amine]	8.41	>10
CCn1c(-c2cnc(C)nc2)nc2c(NC3CN(C(=O)C4CC4)CC3O)ncnc21 (single isomer, unassigned) [Compound 2-97, 1-(cyclopropylcarbonyl)-4-{(3R,4R) or (3S,4S)-[9-ethyl-8-(2-methylpyrimidin-5-yl)-9H-purin-6-yl]amino}pyrrolidin-3-ol]	8.54	>10
CCn1c(-c2ccc(C(F)(F)F)nc2)nc2c(N[C@H]3CCN(C(=O)C4CCOC4)C3)ncnc21 (single isomer, unassigned) [Compound 2-101, 9-ethyl-N-{(3S)-1-[(3R or 3S)-tetrahydrofuran-3-ylcarbonyl]pyrrolidin-3-yl}-8-[6-(trifluoromethyl)pyridin-3-yl]-9H-purin-6-amine]	> 9.00	>10
CCn1c(-c2ccc(C(F)(F)F)nc2)nc2c(N[C@H]3CCN(C(=O)C4CCCO4)C3)ncnc21 (single isomer, unassigned) [Compound 2-103, 9-ethyl-N-{(3S)-1-[(2S or 2R)-tetrahydrofuran-2-ylcarbonyl]pyrrolidin-3-yl}-8-[6-(trifluoromethyl)pyridin-3-yl]-9H-purin-6-amine]	8.74	>10
CCn1c(-c2ccc(C(F)(F)F)nc2)nc2c(N[C@H]3CCN(C(=O)C4CCCO4)C3)ncnc21 (single isomer, unassigned) [Compound 2-104, 9-ethyl-N-{(3S)-1-[(2R or 2S)-tetrahydrofuran-2-ylcarbonyl]pyrrolidin-3-yl}-8-[6-(trifluoromethyl)pyridin-3-yl]-9H-purin-6-amine]	8.47	>10
CCC1CN(C(=O)C2CC2)CC1Nc1ncnc2c1nc(-c1cnc(C)nc1)n2CC (single isomer, unassigned) [Compound 3-20, N-[(3R,4S or 3S,4R)-1-(cyclopropylcarbonyl)-4-ethylpyrrolidin-3-yl]-9-ethyl-8-(2-methylpyrimidin-5-yl)-9H-purin-6-amine]	8.46	>10
CCn1c(-c2cnc(C)nc2)nc2c(NC3CN(C(=O)C4CC4)CC3F)ncnc21 (single isomer, unassigned) [Compound 3-21, N-[(3R,4R or 3S,4S)-1-(cyclopropylcarbonyl)-4-fluoropyrrolidin-3-yl]-9-ethyl-8-(2-methylpyrimidin-5-yl)-9H-purin-6-amine]	8.47	>10
CCn1c(-c2cnc(C)nc2)nc2c(NC3CCCC(NC(=O)c4cocn4)C3)ncnc21 (single isomer, unassigned) [Compound 5-8, N-(1S,3S or 1R,3R)-(3-{[9-ethyl-8-(2-methylpyrimidin-5-yl)-9H-purin-6-yl]amino}cyclohexyl)-1,3-oxazole-4-carboxamide]	7.92	>10
CCn1c(C(F)F)nc2c(N[C@H]3CCN(C(=O)C4CC45CCCC5)C3)ncnc21 (single isomer, unassigned) [Compound 7-20, (S or R)-8-(difluoromethyl)-9-ethyl-N-[(3S)-1-(spiro[2.4]hept-1-ylcarbonyl)pyrrolidin-3-yl]-9H-purin-6-amine]	6.15	>10
CCn1c(C(F)F)nc2c(N[C@H]3CCN(C(=O)C4CC45CCCC5)C3)ncnc21 (single isomer, unassigned) [Compound 7-21, (S or R)-8-(difluoromethyl)-9-ethyl-N-[(3S)-1-(spiro[2.4]hept-1-ylcarbonyl)pyrrolidin-3-yl]-9H-purin-6-amine]	8.62	>10
CCn1c(-c2cnc(C)nc2)nc2c(NC3CCC(=O)N(CC4CC4)C3)ncnc21 (single isomer, unassigned) [Compound 14-6, 5(S or R)-1-(cyclopropylmethyl)-5-{[9-ethyl-8-(2-methylpyrimidin-5-yl)-9H-purin-6-yl]amino}piperidin-2-one]	8.37	>10
CCn1c(-c2cnc(C)nc2)nc2c(NC3CCCC(=O)N(CC4CC4)C3)ncnc21 (single isomer, unassigned) [Compound 14-7, (R or S)-1-(cyclopropylmethyl)-6-{[9-ethyl-8-(2-methylpyrimidin-5-yl)-9H-purin-6-yl]amino}azepan-2-one]	7.89	>10
CCn1c(-c2cnc(C)nc2)nc2c(NC3CCN(C(=O)c4cnco4)C3)ncnc21 (stereo in doubt) [Compound 2-76, (R)-(3-((9-ethyl-8-(2-methylpyrimidin-5-yl)-9H-purin-6-yl)amino)pyrrolidin-1-yl)(oxazol-5-yl)methanone]	8.51	>10
CCn1ncc(-c2nc3c(N[C@@H]4CCN(C(=O)OC(C)(C)C)C4)ncnc3n2C)c1C [Compound 1-1, tert-butyl (3R)-3-{[8-(1-ethyl-5-methyl-1H-pyrazol-4-yl)-9-methyl-9H-purin-6-yl]amino}pyrrolidine-1-carboxylate]	7.82	>10
CCn1ncc(-c2nc3c(N[C@H]4CCN(C(=O)OC(C)(C)C)C4)ncnc3n2C)c1C [Compound 1-2, tert-butyl (3S)-3-{[8-(1-ethyl-5-methyl-1H-pyrazol-4-yl)-9-methyl-9H-purin-6-yl]amino}pyrrolidine-1-carboxylate]	8.74	>10
CCn1ncc(-c2nc3c(N(C)[C@H]4CCN(C(=O)OC(C)(C)C)C4)ncnc3n2C)c1C [Compound 1-3, (S)-tert-butyl 3-((8-(1-ethyl-5-methyl-1H-pyrazol-4-yl)-9-methyl-9H-purin-6-yl)(methyl)amino)pyrrolidine-1-carboxylate]	7.01	>10
